Reference: patent publication US20240252508A1, “Novel glucose uptake inhibitors for use in the treatment of cancer” (NOVELYEAST BV, priority 2021, published 2024)

Columns and labels:
[1] = test system: tps1Δ cells; experiment: Growth rescue of tps1Δ strain on glucose (growth curves, 2% galactose medium); format: cell-based, S. cerevisiae; conditions: 100 μM compound, 2.5 mM glucose
Description: Growth curves were made by measuring OD595 in a 96-well plate using the Multiskan™ FC Microplate Photometer (Thermo Fisher Scientific). Typically, for tps1Δ rescue experiments (FIG. 2b-e; FIG. 4a), cells were (pre)grown in Complete Synthetic medium containing 2% galactose.
Compounds were always added 10 min prior to glucose addition to ensure maximal interaction between the cells and compounds. Cells originating from the preculture were harvested, washed in medium without sugar, after which they were resuspended to an OD of 0.1 in 200 μL of the appropriate medium. At least three technical replicates were included per condition. OD595 was measured at 30° C. every 30 min with a 10-min shaking interval.

[2] = test system: A549 lung adenocarcinoma cells; experiment: A549 cell proliferation / growth inhibition; format: cell-based, human; conditions: for Selected from primary screen for growth inhibition of A549 cells at 50 μM: 50 μM compound, 1 mM glucose; for Selected for having an IC50 ratio (10 mM glucose: 1 mM glucose) of A549 growth higher than WBC-A: IC50 on 10 mM vs 1 mM glucose, compared with WBC-A
Description: The analog library (n=203) was screened for inhibition of growth of A549 cells on RPMI medium supplemented with 1 mM glucose. DMSO (green bar) and WBC-A (orange bar) served as negative and positive control, respectively. In addition, the reference glucose transport inhibitors STF-31, Fasentin, BAY-876, WZB-117 and Cytochalasin B were included and indicated in red. Compounds were added at 50 μM concentration. Number of cells was determined by counting nuclei stained by Hoechst after three days of growth.
For both adherent A549 and MCF10Δ H-RAS^V12 cell lines, growth curves were established using the IncuCyte® ZOOM technology. By collecting phase contrast images, the IncuCyte® software provides a calculated confluency percentage from which growth curves can be deducted.
Cells were seeded at a density of 1000-1500 cells/well in a Nunc-Edge™ 96-well plate (Thermo Fisher Scientific) and growth was typically measured over 3 to 5 days. For the measurement of apoptosis induction using the MCF10Δ H-RAS^V12 cell line, the IncuCyte® Caspase-3/7 green dye was added to the medium in the recommended concentration at the beginning of the growth curve experiment. Apoptosis was detected by taking fluorescent images by excitation at 488 nm followed by IncuCyte® software analysis. Cell growth of the KMS-12-PE multiple myeloma cell line, which grows in suspension, was measured by manual cell counting. Cells were initially seeded at a density of 10^4 cells/well and incubated for 4 days after which the cell number was counted. For all cell lines, the same medium used for pregrowth was also used for the growth curve experiment, albeit with different glucose concentrations depending on the experimental design. With compound administration, the final concentration of DMSO never exceeded 0.1%. Typically, at least four technical repeats were included per condition.

Cc1nc(SCC(=O)NC(=O)NCc2ccco2)c2c(-c3cccs3)csc2n1 [28B]
Rescue of the tps1Δ strain on 2.5 mM glucose at 100 μM [1]: No
Selected from primary screen for growth inhibition of A549 cells at 50 μM [2]: No

Cc1nc(SCC(=O)N2CCOCC2)c2cc(-c3ccccc3)sc2n1 [28C]
Rescue of the tps1Δ strain on 2.5 mM glucose at 100 μM [1]: No
Selected from primary screen for growth inhibition of A549 cells at 50 μM [2]: No

CSc1nnc(Sc2nc(C)nc3scc(-c4cccs4)c23)s1 [29A]
Rescue of the tps1Δ strain on 2.5 mM glucose at 100 μM [1]: No
Selected from primary screen for growth inhibition of A549 cells at 50 μM [2]: No

CC(=O)NCc1ccc(C(=O)CSc2nc(C)nc3scc(-c4cccs4)c23)o1 [29B]
Rescue of the tps1Δ strain on 2.5 mM glucose at 100 μM [1]: Yes
Selected from primary screen for growth inhibition of A549 cells at 50 μM [2]: No

Cc1nc(NCC(=O)Nc2c(C)cccc2C)c2c(-c3cccs3)csc2n1 [29C]
Rescue of the tps1Δ strain on 2.5 mM glucose at 100 μM [1]: No
Selected from primary screen for growth inhibition of A549 cells at 50 μM [2]: No

Cc1nc(Sc2nnc3ccccn23)c2c(-c3cccs3)csc2n1 [30A]
Rescue of the tps1Δ strain on 2.5 mM glucose at 100 μM [1]: No
Selected from primary screen for growth inhibition of A549 cells at 50 μM [2]: No

CCCNC(=O)CN1CCC(Nc2nc(C)nc3scc(-c4cccs4)c23)CC1 [30B]
Rescue of the tps1Δ strain on 2.5 mM glucose at 100 μM [1]: No
Selected from primary screen for growth inhibition of A549 cells at 50 μM [2]: No

OCCSc1ncnc2sc(-c3ccccc3)cc12 [30C]
Rescue of the tps1Δ strain on 2.5 mM glucose at 100 μM [1]: No
Selected from primary screen for growth inhibition of A549 cells at 50 μM [2]: No

CC1CCc2c(sc3ncnc(Sc4nnc5n4CCCCC5)c23)C1 (centres unmarked) [31A]
Rescue of the tps1Δ strain on 2.5 mM glucose at 100 μM [1]: No
Selected from primary screen for growth inhibition of A549 cells at 50 μM [2]: No

Cc1nc(SCC(=O)NCC(F)(F)F)c2c(-c3cccs3)csc2n1 [31B]
Rescue of the tps1Δ strain on 2.5 mM glucose at 100 μM [1]: No
Selected from primary screen for growth inhibition of A549 cells at 50 μM [2]: No

Cc1nc(SCC(=O)OC(C)(C)C)c2c3c(sc2n1)CCCC3 [31C]
Rescue of the tps1Δ strain on 2.5 mM glucose at 100 μM [1]: No
Selected from primary screen for growth inhibition of A549 cells at 50 μM [2]: No

CNc1nnc(Sc2nc(C)nc3scc(-c4cccs4)c23)s1 [32A]
Rescue of the tps1Δ strain on 2.5 mM glucose at 100 μM [1]: No
Selected from primary screen for growth inhibition of A549 cells at 50 μM [2]: No

Cc1nc(SCC(=O)NC(C)(C)C)c2c(-c3cccs3)csc2n1 [32B]
Rescue of the tps1Δ strain on 2.5 mM glucose at 100 μM [1]: Yes
Selected from primary screen for growth inhibition of A549 cells at 50 μM [2]: Yes
Selected for having an IC50 ratio (10 mM glucose: 1 mM glucose) of A549 growth higher than WBC-A [2]: Lower IC50 ratio

Cc1nc(SCCOc2ccc(F)cc2)c2c(-c3cccs3)csc2n1 [32C]
Rescue of the tps1Δ strain on 2.5 mM glucose at 100 μM [1]: No
Selected from primary screen for growth inhibition of A549 cells at 50 μM [2]: No

Cc1nc(N(C)Cc2nnc3n2CCCCC3)c2c(-c3ccccc3)csc2n1 [33A]
Rescue of the tps1Δ strain on 2.5 mM glucose at 100 μM [1]: No
Selected from primary screen for growth inhibition of A549 cells at 50 μM [2]: No

Cc1nc(SC(C)C(=O)NC(C)C)c2c(-c3cccs3)csc2n1 (centres unmarked) [33B]
Rescue of the tps1Δ strain on 2.5 mM glucose at 100 μM [1]: No
Selected from primary screen for growth inhibition of A549 cells at 50 μM [2]: Yes
Selected for having an IC50 ratio (10 mM glucose: 1 mM glucose) of A549 growth higher than WBC-A [2]: Lower IC50 ratio

CCN(CC)CCSc1nc(C)nc2sc3c(c12)CCC3 [33C]
Rescue of the tps1Δ strain on 2.5 mM glucose at 100 μM [1]: No
Selected from primary screen for growth inhibition of A549 cells at 50 μM [2]: Yes
Selected for having an IC50 ratio (10 mM glucose: 1 mM glucose) of A549 growth higher than WBC-A [2]: Lower IC50 ratio

CN(Cc1nnc2n1CCCCC2)c1ncnc2sc(-c3ccccc3)cc12 [34A]
Rescue of the tps1Δ strain on 2.5 mM glucose at 100 μM [1]: No
Selected from primary screen for growth inhibition of A549 cells at 50 μM [2]: No

Cc1nc(SC(C(=O)NC(N)=O)C(C)C)c2c(-c3cccs3)csc2n1 (centres unmarked) [34B]
Rescue of the tps1Δ strain on 2.5 mM glucose at 100 μM [1]: No
Selected from primary screen for growth inhibition of A549 cells at 50 μM [2]: No

CCCn1c(Sc2nc(C)nc3scc(-c4cccs4)c23)nnc1-c1ccncc1 [34C]
Rescue of the tps1Δ strain on 2.5 mM glucose at 100 μM [1]: No
Selected from primary screen for growth inhibition of A549 cells at 50 μM [2]: Yes
Selected for having an IC50 ratio (10 mM glucose: 1 mM glucose) of A549 growth higher than WBC-A [2]: Lower IC50 ratio

Nc1nc(CSc2nnc3n2CCCCC3)nc2sc3c(c12)CCCCC3 [35A]
Rescue of the tps1Δ strain on 2.5 mM glucose at 100 μM [1]: No
Selected from primary screen for growth inhibition of A549 cells at 50 μM [2]: Yes
Selected for having an IC50 ratio (10 mM glucose: 1 mM glucose) of A549 growth higher than WBC-A [2]: Lower IC50 ratio

CCOC(=O)CSc1nc(CN2CCOCC2)nc2scc(-c3cccs3)c12 [35B]
Rescue of the tps1Δ strain on 2.5 mM glucose at 100 μM [1]: No
Selected from primary screen for growth inhibition of A549 cells at 50 μM [2]: No

Cc1nc(Sc2nnnn2Cc2ccco2)c2c(-c3cccs3)csc2n1 [35C]
Rescue of the tps1Δ strain on 2.5 mM glucose at 100 μM [1]: No
Selected from primary screen for growth inhibition of A549 cells at 50 μM [2]: Yes
Selected for having an IC50 ratio (10 mM glucose: 1 mM glucose) of A549 growth higher than WBC-A [2]: Lower IC50 ratio

Cc1sc2nc(-c3cccs3)nc(N(C)Cc3nnc4n3CCCCC4)c2c1C [36A]
Rescue of the tps1Δ strain on 2.5 mM glucose at 100 μM [1]: No
Selected from primary screen for growth inhibition of A549 cells at 50 μM [2]: No

COC(=O)C(C)Sc1nc(C)nc2scc(-c3cccs3)c12 (centres unmarked) [36B]
Rescue of the tps1Δ strain on 2.5 mM glucose at 100 μM [1]: No
Selected from primary screen for growth inhibition of A549 cells at 50 μM [2]: No

CCN(CC)CCSc1ncnc2scc(-c3ccccc3)c12 [36C]
Rescue of the tps1Δ strain on 2.5 mM glucose at 100 μM [1]: No
Selected from primary screen for growth inhibition of A549 cells at 50 μM [2]: Yes
Selected for having an IC50 ratio (10 mM glucose: 1 mM glucose) of A549 growth higher than WBC-A [2]: Lower IC50 ratio

CCn1c(CN)nnc1Sc1nc(-c2ccccc2)nc2scc(-c3ccccc3)c12 [37A]
Rescue of the tps1Δ strain on 2.5 mM glucose at 100 μM [1]: No
Selected from primary screen for growth inhibition of A549 cells at 50 μM [2]: No

COC(=O)CSc1nc(CN2CCOCC2)nc2scc(-c3cccs3)c12 [37B]
Rescue of the tps1Δ strain on 2.5 mM glucose at 100 μM [1]: No
Selected from primary screen for growth inhibition of A549 cells at 50 μM [2]: No

CC1CN(C(=O)CSc2ncnc3scc(-c4ccc(F)cc4)c23)CCO1 (centres unmarked) [37C]
Rescue of the tps1Δ strain on 2.5 mM glucose at 100 μM [1]: No
Selected from primary screen for growth inhibition of A549 cells at 50 μM [2]: No

Cc1nc(N2CCCC(c3nncn3C)C2)c2c(-c3cccs3)csc2n1 (centres unmarked) [38A]
Rescue of the tps1Δ strain on 2.5 mM glucose at 100 μM [1]: No
Selected from primary screen for growth inhibition of A549 cells at 50 μM [2]: No

Cc1nc(SCC(=O)c2ccc(NC(=O)CC(C)C)cc2)c2c(-c3cccs3)csc2n1 [38B]
Rescue of the tps1Δ strain on 2.5 mM glucose at 100 μM [1]: No
Selected from primary screen for growth inhibition of A549 cells at 50 μM [2]: No

CCn1c(Sc2nc(C)nc3scc(-c4cccs4)c23)nnc1-c1ccco1 [38C]
Rescue of the tps1Δ strain on 2.5 mM glucose at 100 μM [1]: No
Selected from primary screen for growth inhibition of A549 cells at 50 μM [2]: No

Cc1nc(Sc2nnnn2C)c2c(-c3cccs3)csc2n1 [39A]
Rescue of the tps1Δ strain on 2.5 mM glucose at 100 μM [1]: No
Selected from primary screen for growth inhibition of A549 cells at 50 μM [2]: Yes
Selected for having an IC50 ratio (10 mM glucose: 1 mM glucose) of A549 growth higher than WBC-A [2]: Lower IC50 ratio

Cc1nc(N(C)CC(N)=O)c2c(-c3cccs3)csc2n1 [39B]
Rescue of the tps1Δ strain on 2.5 mM glucose at 100 μM [1]: No
Selected from primary screen for growth inhibition of A549 cells at 50 μM [2]: No

CC(=O)N(c1nnc(Sc2nc(C)nc3scc(-c4cccs4)c23)s1)C1CC1 [39C]
Rescue of the tps1Δ strain on 2.5 mM glucose at 100 μM [1]: No
Selected from primary screen for growth inhibition of A549 cells at 50 μM [2]: No

COCc1nc(Sc2nnc(CN)n2C)c2c(-c3ccccc3)csc2n1 [40A]
Rescue of the tps1Δ strain on 2.5 mM glucose at 100 μM [1]: No
Selected from primary screen for growth inhibition of A549 cells at 50 μM [2]: No

Cc1nc(SCC(=O)NC(=O)NCc2ccco2)c2cc(-c3ccccc3)sc2n1 [40B]
Rescue of the tps1Δ strain on 2.5 mM glucose at 100 μM [1]: No
Selected from primary screen for growth inhibition of A549 cells at 50 μM [2]: Yes
Selected for having an IC50 ratio (10 mM glucose: 1 mM glucose) of A549 growth higher than WBC-A [2]: Lower IC50 ratio

c1csc(-c2csc3nc(CN4CCOCC4)nc(Sc4ccncc4)c23)c1 [40C]
Rescue of the tps1Δ strain on 2.5 mM glucose at 100 μM [1]: No
Selected from primary screen for growth inhibition of A549 cells at 50 μM [2]: Yes
Selected for having an IC50 ratio (10 mM glucose: 1 mM glucose) of A549 growth higher than WBC-A [2]: Lower IC50 ratio
